Reference: US20150065436A1, “INHIBITING INTERACTION BETWEEN HIF-1ALPHA AND p300/CBP WITH HYDROGEN BOND SURROGATE-BASED HELICES” (UNIVERSITY OF SOUTHERN CALIFORNIA, priority 2013, published 2015)

Tests used:
[1] = molecular target: T1, p300-CH1/Flu-HIF C-TAD complex (Homo sapiens, UniProt Q09472); test: Fluorescence polarization competitive inhibition assay; format: binding
T1 construct: human p300 CH1 domain (amino acid residues 323-423); GST (cleaved yes); made in house; host or cells: E. coli BL21 (DE3) for p300-CH1
T1 sequence (Q09472 323-423, one chain of several): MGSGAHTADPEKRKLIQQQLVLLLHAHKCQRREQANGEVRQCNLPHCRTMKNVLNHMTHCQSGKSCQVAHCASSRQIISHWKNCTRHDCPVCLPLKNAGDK

[2] = test system: VEGFA; test: Real-time qRT-PCR of VEGFA expression in hypoxic HeLa cells; format: cell-based, human; conditions: for reduction of VEGF expression levels: DFO hypoxia
[3] = test system: SLC2A1 (GLUT1); test: Real-time qRT-PCR of SLC2A1 (GLUT1) expression in hypoxic HeLa cells; format: cell-based, human; conditions: hypoxia, dose-dependent (10 and 50 μM tested)
[4] = test system: LOX; test: Real-time qRT-PCR of LOX expression in hypoxic HeLa cells; format: cell-based, human; conditions: hypoxia
[5] = test system: VEGF protein; test: ELISA of secreted VEGF protein levels; format: cell-based, human; conditions: HeLa cells, 1 μM to 10 μM, DFO 300 μM
Procedure: The ability of HBS 1 and HBS 2 to inhibit hypoxia-induced transcription of target genes (VEGFA, SLC2A1/GLUT-1, and LOX) was evaluated employing real-time quantitative RT-PCR (qRT-PCR) assays. The data from the qRT-PCR experiments are presented in FIGS. 17A-D. HBS 1 reduced expression levels of VEGF by 50% at 10 μM and greater than 60% at 50 μM showing marked dose dependence. […] Next, it was determined whether this inhibition could be observed for other therapeutically relevant hypoxia-inducible genes. […] To rule out the possibility that the compounds are only efficacious under DFO mimicked hypoxia, the efficacies of the HBS peptides in downregulating VEGF gene expression were compared under two different hypoxia mimetic conditions: DFO and prolonged incubation in an anaerobic pouch. […] Next, the effect of HBS 1 treatment on the levels of secreted VEGF protein was assessed.

[6] = test system: HIF-1α; test: Western blot analysis of HIF-1α levels; format: cell-based, human; conditions: HeLa cells, 10 μM, hypoxia mimicked with DFO 300 μM
Procedure: HeLa cells were plated in a 75 cm^2 culture flask and allowed to reach 70% confluence. Cells were treated with vehicle or HBS 1 at 10 μM concentration in the cell culture media containing 10% FBS. […] Cells were incubated for 6 hours and hypoxia was induced with 300 μM. DFO. After incubation for an additional 18 hours, cells were lysed and cytoplasmic and nuclear extracts were collected using a NE-PER kit (Pierce) according to the manufacturer's protocol and blotted as described in Dubey et al., “Suppression of Tumor Growth by Designed Dimeric Epidithiodiketopiperazine Targeting Hypoxia-Inducible Transcription Factor Complex,” J. Am. Chem. Soc. 135(11):4537-49 (2013), which is hereby incorporated by reference in its entirety.
To exclude the possibility that the observed down-regulation in the expression of hypoxia-inducible genes was due to a change in the levels of HIF-1α protein itself, a western blot analysis of HIF-1α was performed in hypoxic cells treated with HBS 1. […] As expected, the levels of induced HIF-1α protein were unaffected by treatment with HBS 1 (FIG. 16).

[7] = test system: HeLa cells; test: MTT cell viability assay; format: cell-based, human; conditions: 1 to 100 μM, 24 hours
Procedure: HeLa cells were plated in a 96-well plate at a density of 6,000 cells/well and allowed to form a monolayer before adding the compounds. […] After 3 hours of incubation, the media was removed and purple crystals were dissolved in 100 μL of dimethyl sulfoxide (DMSO). The absorbance was measured at 570 nm with a correction at 690 nm in order to quantify the amount of formed purple formazan. All experiments were performed in quadruplicate.
HBS 1 is an efficient modulator of contacts between HIF-1α and p300/CBP. Known inhibitors of this interaction typically function allosterically, by inducing unfolding of p300/CBP through abstraction of zinc ions. This could lead to non-specific abstraction of metal ions from other biomolecules (Block et al., “Direct Inhibition of Hypoxia-Inducible Transcription Factor Complex With Designed Dimeric Epidithiodiketopiperazine,” J. Am. Chem. Soc. 131(50):18078-88 (2009), which is hereby incorporated by reference in its entirety). It was predicted that the HIF-1α mimetics should manifest their function in a more specific manner, and should not be generally cytotoxic. Cell viability assays confirm this hypothesis. […] Thus, HBS 2 may not just be a straightforward lower affinity analog of HBS 1 as designed.

[8] = test system: 786-O renal cell carcinoma tumors
Procedure: Mice (n=6) were inoculated with 786-O cells (2×10^6 cells) into the right flank and allowed to grow tumors for 21 days. […] In parallel, a control group (n=6) received injections of PBS. Tumor sizes were measured on Days 2, 3, 4, 6, 8, 11, 13, 16, 20, 25, 28, and 33. […] At a conclusion of the study, mice were injected intraperitoneally with the near-infrared dye IR-783 contrast agent and the tumors were imaged using Xenogen IVIS 200 small animal imager.
The CrTac:NCr-Foxn1^nu mouse (Taconic, Inc.) was used for efficacy studies. […] Measurable tumors (˜100 mm^3) grew in as little as 2-3 weeks after the inoculation of 2×10^6 cells into the flank of the mice. […] Tumor sizes were measured in accordance with literature recommendations.

[9] = test system: hypoxia-inducible promoter activity in MDA-MB-231-HRE-Luc cells; test: Luciferase-based HRE promoter activity assay; conditions: 50 μM, hypoxia by GasPak EZ pouch
Procedure: MDA-MB-231-HRE-Luc cells were grown in high glucose DMEM supplemented with 10% fetal bovine serum and 0.4 g/L geneticin (RPI). Hypoxia was mimicked with desferrioxamine mesylate (DFO, Sigma) at a concentration of 300 μM or by GasPak EZ pouch (BD Biosciences). Cell growth and morphology were monitored by phase-contrast microscopy.
MDA-MB-231-HRE-Luc cells were plated in 24-well plates (BD Falcon) at a seeding density of 35,000 cells/mL. Cells were allowed to adhere and form a monolayer before adding the compounds (˜70% confluence). […] All samples contained a final concentration of 0.1% DMSO; vehicle samples were treated with cell culture media containing 0.1% DMSO. Cells were incubated for 6 hours at 37° C. and 5% CO2 and then hypoxia was induced by placing the cells into GasPak EZ pouch for another 18 hours. The lysates were isolated by using cell culture lysis reagent (Promega). Prior to collecting cell lysate, halt protease inhibitor cocktail (Thermo Scientific) was added to the cell culture lysis reagent in order to ensure the stability of proteins. Cell lysates were collected into low-adhesion pre-chilled Eppendorf tubes (USA Scientific) and centrifuged at 13,000 rpm for 5 minutes at 4° C. Supernatant was collected into another set of pre-chilled Eppendorf tubes and the pellet was discarded. Luciferase assay reagent (100 μL, Promega) was added to 20 μL of cell lysate and luminescence intensity was measured by Turner TD-20e luminometer. The results were normalized to total protein concentration determined by BCA assay. Briefly, 10 μL of cell lysate was added to 200 μL of BCA reagent. Absorbance was measured at 562 nm using a BioTek Synergy 2 microplate reader and normalized to BSA solutions at a concentration range of 125 μg/mL to 2000 μg/mL as standards.

[10] = at conclusion of study, IR-783 imaging

Structure (SMILES)	Ki [1] [µM]	reduction of VEGF expression levels ([2]; 10 μM) [%]	reduction of VEGF expression levels ([2]; 50 μM)	inhibition of VEGF expression under two hypoxia mimetic conditions ([2]; DFO and prolonged incubation in an anaerobic pouch)	inhibition of SLC2A1 expression [3]	downregulation of LOX expression ([4]; 10 μM (first of two doses)) [%]	downregulation of LOX expression ([4]; 50 μM (second of two doses)) [%]	secreted VEGF protein levels [5]	levels of induced HIF-1α protein [6]	cytotoxicity [7]	median tumor volume reduction compared to control group ([8]; 13 mg/kg parenterally, 5 injections, 786-O xenograft) [%]	median tumor volume ([8]; 13 mg/kg, 786-O xenograft, volumes measured throughout the study) [mm^3]	NIR signal (IR-783) from the main tumor [8, 10]	NIR signal (IR-783) in lymph nodes, brain or other organs (metastasis) [8, 10]	reduction of luciferase expression [9]	inhibition of the complex on titration ([1]; preformed p300-CH1/Flu-HIF C-TAD complex)	activity on LOX expression ([4]; concentration not given)
CC(C)C[C@H](NC(=O)[C@H](C)NC(=O)[C@H](CCCNC(=N)N)NC(=O)[C@H](C)N1CC=CCCC(=O)N[C@@H](CCC(=O)O)C(=O)N[C@@H](CC(C)C)C1=O)C(=O)N[C@@H](CC(=O)O)C(=O)N[C@@H](CCC(N)=O)C(N)=O [HBS 1, XELA*RALDQ-NH2]	3.5 ± 1.2	50	greater than 60%	dose-dependent inhibition	50-60%	55	70	downregulates VEGF protein levels in HeLa cells in a dose-dependent manner	unaffected	essentially non-cytotoxic	53	138	significantly reduced signal	no detectable NIR signal	25%	–	–
CC(C)C[C@@H]1NC(=O)[C@H](CCC(=O)O)NC(=O)CCC=CCN([C@@H](C)C(=O)N[C@@H](CCCNC(=N)N)C(=O)N[C@@H](C)C(=O)N[C@@H](C)C(=O)N[C@@H](CC(=O)O)C(=O)N[C@@H](CCC(N)=O)C(N)=O)C1=O [HBS 2, XELA*RAADQ-NH2]	–	–	10%	–	no activity	–	–	–	–	higher level of cytotoxicity than HBS 1	–	–	–	–	less effective	did not lead to reproducible inhibition	no activity
